Source: US8507195B2, “MiRNAs dysregulated in triple-negative breast cancer” (The Regents of the University of Colorado, priority 2009, dated 2013)

Tests used:
Type in all cases: cell-based
FASN = experiment: Immunoblot of FASN in triple-negative (BT549) cells after miR-193b mimic transfection; details: TN cells (BT549), 50 nM mimic, 72 h
Protocol: (§1) Transfections. BT549 or MDA-MB-231 cells were plated one day prior to transfection. Lipofectamine 2000 (Invitrogen) was incubated with the miRNA mimics for miR-22, miR-221, miR-193b or miR-7 (Ambion) or scrambled negative control (Ambion) at a concentration of 50 nM incubated in serum free media for 20 minutes prior to addition to the cells. Cells were incubated with the transfection mix at 37° C. for 4 h before replacement of FBS to 5%. Protein was harvested 72 h post-transfection using RIPA lysis buffer (1% NP40, 0.5% NaDeoxycholate, 0.1% SDS, 50 mM Tris, 150 mM NaCl, 5 mM EDTA) containing protease inhibitors.
(§2) Immunoblotting. Cell lysates (50 μg) in SDS sample buffer were denatured and separated on 8% SDS PAGE gels and transferred to PVDF membranes. The membranes were blocked in 5% milk in TBS-T, and then probed overnight at 4° C. […] After incubation with appropriate HRP-conjugated secondary antibody, results were detected using Western Lightning Chemiluminescence Reagent Plus (Perkin Elmer).

[1] = system: MCF10A (normal immortalized) cells; experiment: Apoptosis in MCF10A cells after miR-193b transfection
[2] = system: BT549 (triple negative) cells; experiment: Apoptosis (PARP cleavage immunoblot) in triple-negative (BT549) cells; details: TN cells (BT549), 50 nM mimic, 72 h
Protocol: as §1, §2

ESR1 3′UTR = experiment: Luciferase reporter assay, ESR1 3′UTR region ESR1-1, in MCF7 cells; details: ESR1-1 reporter, 50 nM each mimic, versus scrambled negative control
Description: Luciferase Assays. A 360 bp fragment of the 3′ untranslated region of ESR1 containing the putative binding sites for miR-203, miR-221 and miR-22 was amplified by PCR from HeLa genomic DNA (NEB) using the following primers: ESR1-1 F 5′-[…]-3′ (SEQ ID NO: 6) and ESR1-1 R 5′-[…]-3′ (SEQ ID NO: 7). A 680 bp fragment containing the putative binding sites for miR-130/301, miR-148/152, miR-19 and miR-26 was amplified using the following primers: ESR1-2 F 5′-[…]-3′ (SEQ ID NO: 8) and ESR1-2 R 5′-[…]-3′ (SEQ ID NO: 9). MCF7 cells (20,000 cells/well) in a 96-well plate were transfected with the 100 nM of the negative control, 50 nM each of the miR-22, miR-221 or both as described above. After 24 h, the firefly reporter plasmid (0.196 μg) and a renilla luciferase normalization plasmid (0.004 μg/pRL-SV40, Promega) were transfected in using Lipofectamine 2000. Cells were collected 48 hours later for assay using the Dual Luciferase Reporter assay system (Promega).

MCF7 cells = experiment: Real time RT-PCR of miRNAs in hormone-treated MCF7 cells; details: MCF7, estradiol and ICI
Protocol: Hormone Treatments. MCF7 cells were grown in phenol red-free media containing charcoal stripped serum for 24 hours prior to hormone treatments. The cells were treated with ethanol, 10 nM estradiol or a combination of 10 nM estradiol and 1 mM ICI 182,780 (ICI, Tocris Bioscience) for 6 h, 24 h or 48 h, as indicated, before harvesting RNA using Trizol (Invitrogen) as per the manufacturer's instructions.
Real Time RT-PCR. Poly A tailing and reverse transcription was performed using the NCode miRNA qRT-PCR kit (Invitrogen) as per manufacturer's instructions. SYBR green real time RT-PCR was performed using the Universal Forward Primer (Invitrogen) and miRNA specific primers. The specific primers used were: miR-193b 5′-[…]-3′ (SEQ ID NO: 10); miR-19b 5′-[…]-3′ (SEQ ID NO: 11); miR-20a 5′-[…]-3′ (SEQ ID NO: 12); miR-106a 5′-[…]-3′ (SEQ ID NO: 13); and miR-92b* 5′-[…]-3′ (SEQ ID NO: 14). Reported values are the means and standard errors of 3 biological replicates.
For miR-22, miR-221 and miR-7, taqman real time PCR was performed. Prior to generating cDNA, mRNA was treated with DNase1 (Invitrogen) for 15 min at room temperature. RNA was reverse transcribed into cDNA in a reaction containing reaction buffer, 10 mM DTT, 1 mM dNTPs, RNAse inhibitor (Promega), random hexamers (250 ng) and 200 U of MMUV-RT (ABI). The reaction proceeded at 25° C. for 10 min, then at 37° C. for 1 h. For normalization, real time RT-PCR was performed on the cDNA using ribosomal RNA primers and probe (ABI). TaqMan mRNA Reverse Transcription kit was used to generate cDNA for real time RT-PCR reaction in conjunction with a miR-22, miR-221 or miR-7 specific primers and probe (ABI). Reported values are the means and standard errors of three biological replicates.
The relative mRNA or miRNA levels were calculated using the comparative Ct method (ΔΔCt). Briefly, the Ct (cycle threshold) values for the rRNA were subtracted from Ct values of the target gene to achieve the ΔCt value. The 2^−ΔCt was calculated for each sample and then each of the values was then divided by a control sample to achieve the relative miRNA levels (ΔΔCt).

In the case of “miR-193b mimic: miRNA mimic for miR-193b (Ambion); miR-193b is SEQ ID NO:1 aacuggcccucaaagucccgcu (AACUGGCCCUCAAAGUCCCGCU; mimic duplex, complementary strand not listed, further chemistry not given here)”, the FASN protein (FASN) is reported as “almost complete repression”, the apoptosis [1] is reported as “no apoptosis” and the PARP cleavage [2] is reported as “complete PARP cleavage”. The “apoptosis, as seen by the appearance of cleaved PARP” value [2] was “increase in apoptosis”.
“miR-221 mimic: miRNA mimic for miR-221 (Ambion); hsa-miR-221 sequence agcuacauugucugcuggguuuc (AGCUACAUUGUCUGCUGGGUUUC; chemistry not given here)” was tested, and the “decrease in luciferase activity” value (ESR1 3′UTR) was 13.7%.
With `C[C@]12CC[C@@H]3c4ccc(O)cc4C[C@@H](CCCCCCCCC[S+]([O-])CCCC(F)(F)C(F)(F)F)[C@H]3[C@@H]1CC[C@@H]2O` (stereo partly drawn) [ICI, ICI 182,780] the “estradiol effect on miR-92b*” value (MCF7 cells; 24 h) was “reversed”, the “estradiol effect on miR-19b” value (MCF7 cells; 48 h) was “abrogated” and the “estradiol effect on miR-20a” value (MCF7 cells; 48 h) was “abrogated”. The “estradiol effect on miR-106a” value (MCF7 cells; 48 h) was “abrogated”.
